Experimental data: US9012655B2, “Antimicrobial/adjuvant compounds and methods” (Denouamed, Inc., priority 2011, dated 2015)
In brackets after ≈: the same amount, converted by molar mass.

What was measured:
Assay in all cases: MIC panel of challenge pathogens (CLSI)
Type in all cases: cell-based
[1] = tested on: Bacillus cereus NCTC6349; conditions: Bacillus cereus NCTC6349
Description: (§1) The inocula for each bacterial strain were prepared by picking 5-10 distinct colonies from the culture plates and suspending them in the appropriate broth as per Clinical and Laboratory Standards Institute (CLSI) guidelines M07-A8, M24-A or M11-A7 as appropriate. The inoculum was resuspended by vigorous shaking on a vortex mixer for 15 s. The turbidity was then adjusted to McFarland standard 0.5 ([…]). The inoculum was further diluted in the appropriate media for MIC tests to give a final inoculum in each well of 2-8×10^5 CFU/ml. MICs were tested in the appropriate broth in accordance with the appropriate CLSI guidelines.
(§2) A stock solution of each compound was prepared at a concentration of 1.28 g/L in DMSO. The stock was further diluted in the appropriate media to give a top starting concentration of 128 mg/L in the assay. 100 μL of the appropriate media, as per CLSI guidelines, was dispensed into each well in columns 2-12. 200 μL of the each compound solution (at 256 mg/L) was dispensed into each well in column 1. 100 μL aliquots were pipetted from column 1 wells and dispensed into column 2 with a multichannel pipette (±2% coefficient of variation) thus diluting two-fold. 100 μL samples were then pipetted from column 2 wells and dispensed into column 3. The process was repeated through to column 10. The final 100 μL of diluted drug from column 10 was then discarded. Row 11 acted as a positive control (no compound, but organisms added), Row 12 acted as a negative control (no compound, and no organisms added).
(§3) 100 μL of the appropriate inoculum suspension in the appropriate media, as per CLSI guidelines, was added to the appropriate wells. […] All plates were incubated in the dark under aerobic or anaerobic conditions at 30-37° C. for 24-48 hours, according to the appropriate CLSI guideline. Plates were read visually 24-48 hours post inoculation. Endpoints of 100% inhibition were determined (CLSI interpretation endpoints following visual examination).
(§4) MIC50, MIC80, and 100% inhibition results are reported below in μg/mL in the following Tables, indicating each compound tested against a given species and strain: […]

[2] = tested on: Enterococcus faecalis ATCC29212; conditions: Enterococcus faecalis ATCC29212
Description: as §1, §2, §3, §4

[3] = tested on: Enterococcus faecalis ATCC51299; conditions: Enterococcus faecalis ATCC51299
Description: as §1, §2, §3, §4

[4] = tested on: Enterococcus faecium ATCC700221; conditions: Enterococcus faecium ATCC700221
Description: as §1, §2, §3, §4

[5] = tested on: Staphylococcus aureus ATCC43300; conditions: Staphylococcus aureus ATCC43300
Description: as §1, §2, §3, §4

[6] = tested on: Staphylococcus aureus AUR131 007035; conditions: Staphylococcus aureus AUR131 007035
Description: as §1, §2, §3, §4

[7] = tested on: Staphylococcus aureus AUR58 7005; conditions: Staphylococcus aureus AUR58 7005
Description: as §1, §2, §3, §4

[8] = tested on: Staphylococcus aureus AUR59 7005; conditions: Staphylococcus aureus AUR59 7005
Description: as §1, §2, §3, §4

[9] = tested on: Staphylococcus aureus AUR60 7005; conditions: Staphylococcus aureus AUR60 7005
Description: as §1, §2, §3, §4

[10] = tested on: Staphylococcus aureus EUP MRSA002; conditions: Staphylococcus aureus EUP MRSA002
Description: as §1, §2, §3, §4

[11] = tested on: Staphylococcus aureus EUP MRSA004; conditions: Staphylococcus aureus EUP MRSA004
Description: as §1, §2, §3, §4

[12] = tested on: Staphylococcus aureus EUP SAU040; conditions: Staphylococcus aureus EUP SAU040
Description: as §1, §2, §3, §4

[13] = tested on: Staphylococcus aureus NRS1 (ATCC700699); conditions: Staphylococcus aureus NRS1 (ATCC700699)
Description: as §1, §2, §3, §4

[14] = tested on: Staphylococcus aureus NRS2 (ATCC700698); conditions: Staphylococcus aureus NRS2 (ATCC700698)
Description: as §1, §2, §3, §4

[15] = tested on: Staphylococcus aureus NRS382; conditions: Staphylococcus aureus NRS382
Description: as §1, §2, §3, §4

[16] = tested on: Staphylococcus aureus NRS383; conditions: Staphylococcus aureus NRS383
Description: as §1, §2, §3, §4

[17] = tested on: Staphylococcus aureus NRS384; conditions: Staphylococcus aureus NRS384
Description: as §1, §2, §3, §4

[18] = tested on: Staphylococcus epidermidis NRS122; conditions: Staphylococcus epidermidis NRS122
Description: as §1, §2, §3, §4

[19] = tested on: Staphylococcus epidermidis NRS7; conditions: Staphylococcus epidermidis NRS7
Description: as §1, §2, §3, §4

`Cc1ccc(-c2cc(-c3nn[nH]n3)cc(-c3ccccc3-c3ccccc3)c2)c2ccccc12` [DNM0474] was tested, and the 100% inhibition [1] was “≦0.25 μg/mL”, the “MIC50 (50%)” value [1] was “≦0.25 μg/mL” and the “MIC80 (80%)” value [1] was “≦0.25 μg/mL”. The 100% inhibition [2] was 1 µg/mL, the “MIC50 (50%)” value [2] was 1 µg/mL (≈ 2.28 µM) and the “MIC80 (80%)” value [2] was 1 µg/mL (≈ 2.28 µM). For the same compound, the 100% inhibition [3] was 1 µg/mL, the “MIC50 (50%)” value [3] was 1 µg/mL (≈ 2.28 µM) and the “MIC80 (80%)” value [3] was 1 µg/mL (≈ 2.28 µM). The 100% inhibition [4] was 1 µg/mL, the “MIC50 (50%)” value [4] was 1 µg/mL (≈ 2.28 µM) and the “MIC80 (80%)” value [4] was 1 µg/mL (≈ 2.28 µM). The 100% inhibition [5] was 0.5 µg/mL, the “MIC50 (50%)” value [5] was 0.5 µg/mL (≈ 1.14 µM) and the “MIC80 (80%)” value [5] was 0.5 µg/mL (≈ 1.14 µM). The 100% inhibition [6] was 0.5 µg/mL, the “MIC50 (50%)” value [6] was 0.5 µg/mL (≈ 1.14 µM) and the “MIC80 (80%)” value [6] was 0.5 µg/mL (≈ 1.14 µM). For the same compound, the 100% inhibition [7] was 1 µg/mL, the “MIC50 (50%)” value [7] was 0.5 µg/mL (≈ 1.14 µM) and the “MIC80 (80%)” value [7] was 1 µg/mL (≈ 2.28 µM). For the same compound, the 100% inhibition [8] was 0.5 µg/mL, the “MIC50 (50%)” value [8] was 0.5 µg/mL (≈ 1.14 µM) and the “MIC80 (80%)” value [8] was 0.5 µg/mL (≈ 1.14 µM). The 100% inhibition [9] was 0.5 µg/mL, the “MIC50 (50%)” value [9] was 0.5 µg/mL (≈ 1.14 µM) and the “MIC80 (80%)” value [9] was 0.5 µg/mL (≈ 1.14 µM). The 100% inhibition [10] was 1 µg/mL, the “MIC50 (50%)” value [10] was 1 µg/mL (≈ 2.28 µM) and the “MIC80 (80%)” value [10] was 1 µg/mL (≈ 2.28 µM). The 100% inhibition [11] was 0.5 µg/mL, the “MIC50 (50%)” value [11] was 0.5 µg/mL (≈ 1.14 µM) and the “MIC80 (80%)” value [11] was 0.5 µg/mL (≈ 1.14 µM). The 100% inhibition [12] was 0.25 µg/mL, the “MIC50 (50%)” value [12] was 0.5 µg/mL (≈ 1.14 µM) and the “MIC80 (80%)” value [12] was 0.5 µg/mL (≈ 1.14 µM). The 100% inhibition [13] was 0.5 µg/mL, the “MIC50 (50%)” value [13] was 0.25 µg/mL (≈ 0.57 µM) and the “MIC80 (80%)” value [13] was 0.5 µg/mL (≈ 1.14 µM). The 100% inhibition [14] was 0.5 µg/mL, the “MIC50 (50%)” value [14] was 0.5 µg/mL (≈ 1.14 µM) and the “MIC80 (80%)” value [14] was 0.5 µg/mL (≈ 1.14 µM). For the same compound, the 100% inhibition [15] was 0.5 µg/mL, the “MIC50 (50%)” value [15] was 0.5 µg/mL (≈ 1.14 µM) and the “MIC80 (80%)” value [15] was 0.5 µg/mL (≈ 1.14 µM). The 100% inhibition [16] was 0.5 µg/mL, the “MIC50 (50%)” value [16] was 0.5 µg/mL (≈ 1.14 µM) and the “MIC80 (80%)” value [16] was 0.5 µg/mL (≈ 1.14 µM). The 100% inhibition [17] was 0.5 µg/mL, the “MIC50 (50%)” value [17] was 0.5 µg/mL (≈ 1.14 µM) and the “MIC80 (80%)” value [17] was 0.5 µg/mL (≈ 1.14 µM). The 100% inhibition [18] was 16 µg/mL, the “MIC50 (50%)” value [18] was 4 µg/mL (≈ 9.12 µM) and the “MIC80 (80%)” value [18] was 8 µg/mL (≈ 18.2 µM). For the same compound, the 100% inhibition [19] was 1 µg/mL, the “MIC50 (50%)” value [19] was 0.5 µg/mL (≈ 1.14 µM) and the “MIC80 (80%)” value [19] was 1 µg/mL (≈ 2.28 µM).
